According to paper PMC6592621 (Experimental neurology, 2019):

Assays:
[1] = in mice; ref Parkinson Study Group, 2007; cited from earlier work
[2] = over 4 weeks in subjects with PD; ref Parkinson Study Group, 2007; cited from earlier work
185 other kinases = conditions: at 1uM; ref Goodfellow et al., 2013; cited from earlier work
TH+ neurons in the SNpc = format: in vivo, C57BL/6J mice; conditions: MPTP-treated mice vs neurotoxin vehicle or drug vehicle controls
striatal TH = assay: Western blot of striatal TH in MPTP model; format: in vivo, C57BL/6J mice; conditions: 20 mg/kg MPTP for 5 days, vs neurotoxin vehicle or drug vehicle
striatal DA = assay: HPLC of striatal neurochemistry in MPTP model; format: in vivo, C57BL/6J mice; conditions: MPTP 20 mg/kg s.c. 5 days, vs neurotoxin vehicle or drug vehicle
p54-JNK = conditions: treatment in mice; ref Dong et al., 2016; cited from earlier work
p38 = conditions: treatment in mice; ref Dong et al., 2016; cited from earlier work
CD68 expression = conditions: mouse EAE hippocampus; ref Bellizzi et al., 2018; cited from earlier work
p46-JNK = conditions: treatment in mice; ref Dong et al., 2016; cited from earlier work

## CCSCc1ccc2c(c1)c1c3c(c4c5cc(CSCC)ccc5n5c4c1n2[C@H]1C[C@](O)(C(=O)OC)[C@]5(C)O1)CNC3=O [CEP-1347]
[1]
  brain/plasma ratio: < 0.2
[2]
  safety and tolerability: safe and well tolerated
185 other kinases
  number of other kinases with 50% inhibition: 185

## CN1CC=C(c2ccccc2)CC1 [MPTP, 1-methyl-4-phenyl-1,2,3,6-tetrahydropyridine]
TH+ neurons in the SNpc
  reduction in the number of TH+ neurons in the SNpc: approximately 84%
Striatal TH
  reduction in striatal TH expression: approximately 50%
Striatal DA
  reduction in striatal dopamine: approximately 50%

## CN1CCN(Cc2ccc(-c3cnc4[nH]cc(-c5ccc6[nH]ccc6c5)c4c3)cc2)CC1 [URMC-099]
p54-JNK
  decrease in phosphorylation of p54-JNK: 23.7%
p38
  decrease in phosphorylation of p38: 21.5%
CD68 expression
  effect on CD68 expression: prevented increased CD68 expression
p46-JNK
  decrease in phosphorylation of p46-JNK: 17.3%
